Experimental data: US20120196899A1, “METHODS AND PRODUCTS FOR TREATING INFLAMMATION” (Rock Creek Pharmaceuticals, Inc., priority 2010, published 2012)
Where two headings read alike, the source gives them in different places.

Assay: Plasma toxicokinetics after single i.v. bolus
Assay type: in vivo, Sprague-Dawley rats
Settings: for concentration at 0.5 h / concentration at 1 h / concentration at 2 h / concentration at 4 h / concentration at 6 h / concentration at 8 h / AUC(0-inf) / MRT / Vd / half-life: Sprague-Dawley, rat, plasma; for concentration at 0.5 h / concentration at 1 h / concentration at 2 h / concentration at 4 h / concentration at 6 h / concentration at 8 h: intravenous, read-out: Avg. Conc. rat plasma; for AUC(0-inf) / MRT / Vd / half-life: iv; for half-life: read-out: t1/2 (converted)
Description: Six rats (3 males and 3 females) were dosed per dose group. […] Plasma and brain homogenates were stored at −80° C. until analysis.
An additional 48 rats (24 males and 24 females) received a single intravenous dose via the tail vein at the same doses as mentioned above. At 30 and 360 minutes post administration, 6 rats (3 males and 3 females) per dose group, per time point were euthanized, bled via cardiac puncture, and perfused, and brains were collected. The brains were homogenized. Blood was spun, and plasma was collected. Plasma and brain homogenate were stored at −80° C.
Four aliquots of each dose level formulation were collected and stored at −80° C. The test compound, corresponding dose level, number of animals, and sample collection times for Phase I of the study are shown in Table 3. The test compound, corresponding dose level, number of animals, and sample collection times for Phase II of the study are shown in Table 4. The physical signs of each animal were monitored following administration of the test compound.
The animals were weighed prior to dosing and received a single i.v. dose of either test compound at a volume of 5 mL/kg. Blood was collected via the venus plexus (retro-orbital) into tubes containing (K2) EDTA. No more than 0.5 mL was collected per time point. […] The brain was removed, weighed, homogenized in sterile 0.9% saline at a volume equal to its weight, and stored at −80° C.
Plasma was separated according to the instructions for MICROTAINER® brand collection tubes (3 minutes, 2000×g). Plasma was decanted into microfuge tubes and stored at −80° C. Remaining test compound was stored at −80° C.
The signal was optimized for each compound by electrospray ionization (ESI) positive or negative ionization mode. A single ion mode (SIM) scan was used to optimize the Fragmentor for the precursor ion and a product ion analysis was used to identify the best fragment for analysis and to optimize the collision energy. The fragment which gave the most sensitive and specific signal was chosen.
Sample preparation. […] The amount of the test agent in the supernatant was determined by liquid chromatography tandem mass spectrometry (LC/MS/MS).
Analysis. Samples were analyzed by LC/MS/MS using an Agilent 6410 mass spectrometer coupled with an Agilent 1200 high pressure liquid chromatography (HPLC) and a CTC PAL chilled autosampler, all controlled by MassHunter software (Agilent). After separation on a hydrophilic interaction liquid chromatography (HILIC) HPLC column (Sepax) using an acetonitrile-ammonium acetate/acetic acid gradient system, peaks were analyzed by mass spectrometry (MS) using ESI ionization in multiple reaction monitoring (MRM) mode. MassHunter software was used to calculate the concentration of the test compounds in samples from the peak area using the appropriate calibration curves.
Calibration samples. Calibration curves were determined for both rat plasma and brain homogenate. Calibration samples were prepared by diluting a 50× stock solution of the test compound in PBS with blank matrix to the appropriate concentration and these samples were prepared as described above in the sample preparation.

[1] = female, 0.1 mg/kg, Anatabine 0.1 mg/kg, female
[2] = female, 0.75 mg/kg, Anatabine 0.75 mg/kg, female
[3] = female, 1 mg/kg, Anatabine 1.0 mg/kg, female
[4] = male, 0.1 mg/kg, Anatabine 0.1 mg/kg, male
[5] = male, 0.75 mg/kg, Anatabine 0.75 mg/kg, male
[6] = male, 1 mg/kg, Anatabine 1.0 mg/kg, male

`C1=CCC(c2cccnc2)NC1` (racemic) [Anatabine, 1,2,3,6-tetrahydro-[2,3′]bipyridinyl] gave a concentration at 0.5 h (female, 0.1 mg/kg, Anatabine 0.1 mg/kg, female, 0.5 hr (2nd 0.5 hr line)) of 31.7 ng/mL, a concentration at 1 h [1] of 11 ng/mL and a concentration at 2 h [1] of 6.7 ng/mL. For the same compound, the concentration at 4 h [1] was 4 ng/mL, the concentration at 6 h (female, 0.1 mg/kg, Anatabine 0.1 mg/kg, female, 6 hr (1st 6 hr line, N=3)) was 3.7 ng/mL and the concentration at 6 h (female, 0.1 mg/kg, Anatabine 0.1 mg/kg, female, 6 hr (2nd 6 hr line, N=1)) was 3 ng/mL. For the same compound, the concentration at 0.5 h (female, 0.75 mg/kg, Anatabine 0.75 mg/kg, female, 0.5 hr (1st 0.5 hr line)) was 190 ng/mL, the concentration at 0.5 h (female, 0.75 mg/kg, Anatabine 0.75 mg/kg, female, 0.5 hr (2nd 0.5 hr line)) was 354 ng/mL and the concentration at 1 h [2] was 173 ng/mL. It also gave a concentration at 2 h [2] of 99.7 ng/mL, a concentration at 4 h [2] of 45.3 ng/mL and a concentration at 6 h (female, 0.75 mg/kg, Anatabine 0.75 mg/kg, female, 6 hr (1st 6 hr line)) of 18.3 ng/mL. The concentration at 6 h (female, 0.75 mg/kg, Anatabine 0.75 mg/kg, female, 6 hr (2nd 6 hr line)) was 23 ng/mL, the concentration at 8 h [2] was 11 ng/mL and the concentration at 0.5 h (female, 1 mg/kg, Anatabine 1.0 mg/kg, female, 0.5 hr (1st 0.5 hr line)) was 237 ng/mL. It also gave a concentration at 0.5 h (female, 1 mg/kg, Anatabine 1.0 mg/kg, female, 0.5 hr (2nd 0.5 hr line)) of 368 ng/mL, a concentration at 1 h [3] of 229 ng/mL and a concentration at 2 h [3] of 164 ng/mL. It also gave a concentration at 4 h [3] of 60.7 ng/mL, a concentration at 6 h (female, 1 mg/kg, Anatabine 1.0 mg/kg, female, 6 hr (1st 6 hr line)) of 29.3 ng/mL and a concentration at 6 h (female, 1 mg/kg, Anatabine 1.0 mg/kg, female, 6 hr (2nd 6 hr line)) of 23 ng/mL. The concentration at 8 h [3] was 17.7 ng/mL, the AUC(0-inf) (female, 0.1 mg/kg) was 37.9 ± 15.9 ng·h/mL and the MRT (female, 0.1 mg/kg) was 2.55 ± 0.93 h. For the same compound, the Vd (female, 0.1 mg/kg) was 6.52 ± 0.66 L/kg, the AUC(0-inf) (female, 0.75 mg/kg) was 544 ± 62.7 ng·h/mL and the Vd (female, 0.75 mg/kg) was 3.19 ± 0.15 L/kg. It also gave a half-life (female, 0.75 mg/kg, anatabine 0.75 mg/kg single i.v., female rats) of 1.73 ± 0.03 h, an AUC(0-inf) (female, 1 mg/kg) of 789 ng·h/mL and an MRT (female, 1 mg/kg) of 2.8 h. It also gave a Vd (female, 1 mg/kg) of 3.16 ± 0.15 L/kg, a half-life (female, 1 mg/kg, anatabine 1.0 mg/kg single i.v., female rats) of 1.84 h and a concentration at 0.5 h (male, 0.1 mg/kg, Anatabine 0.1 mg/kg, male, 0.5 hr (1st 0.5 hr line)) of 15.3 ng/mL. The concentration at 0.5 h (male, 0.1 mg/kg, Anatabine 0.1 mg/kg, male, 0.5 hr (2nd 0.5 hr line)) was 31.7 ng/mL, the concentration at 1 h [4] was 12.3 ng/mL and the concentration at 2 h [4] was 6.3 ng/mL. For the same compound, the concentration at 4 h [4] was 3 ng/mL, the concentration at 6 h (male, 0.1 mg/kg, Anatabine 0.1 mg/kg, male, 6 hr (2nd 6 hr line)) was 5 ng/mL and the concentration at 0.5 h (male, 0.75 mg/kg, Anatabine 0.75 mg/kg, male, 0.5 hr (1st 0.5 hr line)) was 181 ng/mL. The concentration at 0.5 h (male, 0.75 mg/kg, Anatabine 0.75 mg/kg, male, 0.5 hr (2nd 0.5 hr line)) was 302 ng/mL, the concentration at 1 h [5] was 152 ng/mL and the concentration at 2 h [5] was 83.7 ng/mL. For the same compound, the concentration at 4 h [5] was 34.7 ng/mL, the concentration at 6 h (male, 0.75 mg/kg, Anatabine 0.75 mg/kg, male, 6 hr (1st 6 hr line)) was 14 ng/mL and the concentration at 6 h (male, 0.75 mg/kg, Anatabine 0.75 mg/kg, male, 6 hr (2nd 6 hr line)) was 22 ng/mL. It also gave a concentration at 8 h [5] of 9 ng/mL, a concentration at 0.5 h (male, 1 mg/kg, Anatabine 1.0 mg/kg, male, 0.5 hr (1st 0.5 hr line)) of 272 ng/mL and a concentration at 0.5 h (male, 1 mg/kg, Anatabine 1.0 mg/kg, male, 0.5 hr (2nd 0.5 hr line)) of 399 ng/mL. The concentration at 1 h [6] was 234 ng/mL, the concentration at 2 h [6] was 123 ng/mL and the concentration at 4 h [6] was 42.3 ng/mL. The concentration at 6 h (male, 1 mg/kg, Anatabine 1.0 mg/kg, male, 6 hr (1st 6 hr line)) was 18 ng/mL, the concentration at 6 h (male, 1 mg/kg, Anatabine 1.0 mg/kg, male, 6 hr (2nd 6 hr line)) was 27 ng/mL and the concentration at 8 h [6] was 7.7 ng/mL. It also gave an AUC(0-inf) (male, 0.1 mg/kg) of 32 ± 7.7 ng·h/mL, an MRT (male, 0.1 mg/kg) of 2.03 ± 0.41 h and a Vd (male, 0.1 mg/kg) of 5.29 ± 0.49 L/kg. The half-life (male, 0.1 mg/kg, anatabine 0.1 mg/kg single i.v., male rats) was 1.25 ± 0.32 h, the AUC(0-inf) (male, 0.75 mg/kg) was 464 ± 36.2 ng·h/mL and the MRT (male, 0.75 mg/kg) was 2.5 ± 0.19 h. The Vd (male, 0.75 mg/kg) was 3.48 ± 0.18 L/kg, the AUC(0-inf) (male, 1 mg/kg) was 631 ng·h/mL and the MRT (male, 1 mg/kg) was 2.18 h. For the same compound, the Vd (male, 1 mg/kg) was 3.01 ± 0.12 L/kg, the half-life (male, 1 mg/kg, anatabine 1.0 mg/kg single i.v., male rats) was 1.44 h and the “plasma concentration between approximately 6 and 8 hours” value (nicotine 0.4 mg/kg, anatabine 0.1 mg/kg single i.v., rats) was “below the limits of quantitation”.
